{
  "source": "patent US10328067B2",
  "about": "“Pharmaceutical oral dose formulation and composition of matter” (priority 2016, dated 2019)",
  "origin": "cited, not measured here",
  "details": "result in words; p-glycoprotein substrate",
  "data": [
    {"compound": "CC[C@]1(O)C[C@@H]2CN(CCc3c([nH]c4ccccc34)[C@@](C(=O)OC)(c3cc4c(cc3OC)N(C)[C@H]3[C@@](O)(C(=O)OC)[C@H](OC(C)=O)[C@]5(CC)C=CCN6CC[C@]43[C@@H]65)C2)C1", "note": "[vinblastine]", "values": [
      {"measurement": "intestinal absorption", "result": "negligible intestinal absorption"}
    ]}
  ]
}
